Source: publication PMC4585798 (Scientific Reports, 2015)
pIC50: −log10 of the molar value. Positions of bridges follow the written chain, without caps; N, C: chain ends. Residues, ends and D or L forms follow the SMILES beside them.

How the values were obtained:
Assay in all cases: cell-based
rα9α10 nAChR = rα9α10 nAChR (Rattus norvegicus, UniProt P43144+Q9JLB5)
hα9α10 nAChR = hα9α10 nAChR (Homo sapiens, UniProt Q9GZZ6+Q9UGM1)
hα9rα10 nAChR = hα9rα10 nAChR (UniProt Q9JLB5+Q9UGM1); parameters: species or system human α9 and rat α10
Chain of hα9rα10 nAChR (Q9UGM1 26-479 limits assumed): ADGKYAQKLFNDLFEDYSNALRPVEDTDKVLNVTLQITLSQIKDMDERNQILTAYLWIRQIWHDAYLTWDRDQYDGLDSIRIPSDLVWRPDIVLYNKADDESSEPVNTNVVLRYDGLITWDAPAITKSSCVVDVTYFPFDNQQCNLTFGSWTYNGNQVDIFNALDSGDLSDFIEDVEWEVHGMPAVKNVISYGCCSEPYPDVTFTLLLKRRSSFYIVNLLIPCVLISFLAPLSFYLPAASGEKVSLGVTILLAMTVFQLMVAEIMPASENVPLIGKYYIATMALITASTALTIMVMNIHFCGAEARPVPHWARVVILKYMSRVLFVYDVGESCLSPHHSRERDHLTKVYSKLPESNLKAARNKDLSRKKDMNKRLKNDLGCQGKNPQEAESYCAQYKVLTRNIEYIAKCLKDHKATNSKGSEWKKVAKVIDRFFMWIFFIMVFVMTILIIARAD
Chain of hα9rα10 nAChR (Q9JLB5 25-447 limits assumed): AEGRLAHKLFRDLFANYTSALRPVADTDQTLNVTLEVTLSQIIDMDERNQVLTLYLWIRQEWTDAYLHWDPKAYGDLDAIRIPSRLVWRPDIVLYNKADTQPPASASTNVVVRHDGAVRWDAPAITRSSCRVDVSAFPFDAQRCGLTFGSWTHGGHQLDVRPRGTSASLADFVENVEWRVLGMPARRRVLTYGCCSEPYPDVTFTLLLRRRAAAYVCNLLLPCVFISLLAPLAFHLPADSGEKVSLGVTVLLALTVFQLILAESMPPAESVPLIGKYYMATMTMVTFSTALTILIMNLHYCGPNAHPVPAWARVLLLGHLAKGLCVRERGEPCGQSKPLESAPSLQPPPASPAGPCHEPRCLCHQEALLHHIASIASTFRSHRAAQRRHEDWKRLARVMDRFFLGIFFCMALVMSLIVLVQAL

hα9α10[L7H] nAChR = hα9α10[L7H] nAChR (Homo sapiens, UniProt Q9GZZ6+Q9UGM1, L31H); format: cell-based
Chain of hα9α10[L7H] nAChR (Q9UGM1 26-479 limits assumed, stated change not applied): as the sequence (Q9UGM1 26-479 limits assumed) above
Chain of hα9α10[L7H] nAChR (Q9GZZ6 25-450 L31H limits assumed, stated change not applied): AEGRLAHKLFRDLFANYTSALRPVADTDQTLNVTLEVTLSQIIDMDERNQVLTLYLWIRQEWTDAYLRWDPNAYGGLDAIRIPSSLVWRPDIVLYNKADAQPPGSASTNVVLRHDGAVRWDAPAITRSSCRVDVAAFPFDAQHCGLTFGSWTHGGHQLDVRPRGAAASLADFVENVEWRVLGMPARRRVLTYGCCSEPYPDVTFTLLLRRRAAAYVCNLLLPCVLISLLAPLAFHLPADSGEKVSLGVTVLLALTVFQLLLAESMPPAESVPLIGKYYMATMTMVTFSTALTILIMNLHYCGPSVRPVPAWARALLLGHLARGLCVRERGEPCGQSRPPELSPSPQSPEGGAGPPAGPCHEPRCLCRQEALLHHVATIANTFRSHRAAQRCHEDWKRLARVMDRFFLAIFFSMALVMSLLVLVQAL

Chain of hα9α10 nAChR (Q9UGM1 26-479 limits assumed): as the sequence (Q9UGM1 26-479 limits assumed) above
Chain of hα9α10 nAChR (Q9GZZ6 25-450 limits assumed): as the sequence (Q9GZZ6 25-450 L31H limits assumed, stated change not applied) above, with H7L counted along it
Chain of rα9α10 nAChR (P43144 26-479 limits assumed): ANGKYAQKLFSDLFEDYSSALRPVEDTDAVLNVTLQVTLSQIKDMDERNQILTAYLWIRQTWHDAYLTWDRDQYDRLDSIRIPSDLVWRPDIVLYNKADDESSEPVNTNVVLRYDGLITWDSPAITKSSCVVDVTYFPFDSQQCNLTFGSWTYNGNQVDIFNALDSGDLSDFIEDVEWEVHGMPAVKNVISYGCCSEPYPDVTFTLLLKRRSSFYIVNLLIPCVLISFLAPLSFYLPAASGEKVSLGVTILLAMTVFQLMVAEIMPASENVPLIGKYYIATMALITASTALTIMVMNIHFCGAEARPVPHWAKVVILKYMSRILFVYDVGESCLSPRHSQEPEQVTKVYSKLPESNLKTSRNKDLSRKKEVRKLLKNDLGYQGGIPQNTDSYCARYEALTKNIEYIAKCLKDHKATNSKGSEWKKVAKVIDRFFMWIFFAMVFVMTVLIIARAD
Chain of rα9α10 nAChR (Q9JLB5 25-447 limits assumed): as the sequence (Q9JLB5 25-447 limits assumed) above

CSCC[C@H](NC(=O)[C@@H](NC(=O)[C@@H]1CSSC[C@@H]2NC(=O)[C@H](CC(=O)O)NC(=O)[C@H](C)NC(=O)[C@H](CCCNC(=N)N)NC(=O)[C@H](C)NC(=O)[C@@H]3CSSC[C@H](NC(=O)CNC(=O)[C@H](Cc4c[nH]cn4)NC(=O)CNC(=O)[C@H](CCCNC(=N)N)NC(=O)[C@H](Cc4c[nH]c5ccccc45)NC(=O)[C@H]([C@@H](C)O)NC(=O)[C@H](Cc4c[nH]cn4)NC(=O)[C@H](Cc4ccc(O)cc4)NC(=O)[C@H](C(C)C)NC(=O)[C@H](CSSC[C@H](NC(=O)[C@H](CC(C)C)NC(=O)[C@H](CCCNC(=N)N)NC(=O)[C@@H](N)[C@@H](C)O)C(=O)N[C@@H](CO)C(=O)N[C@@H]([C@@H](C)O)C(=O)N[C@@H](CCSC)C(=O)N[C@@H](CO)C(=O)N3)NC(=O)[C@H]([C@@H](C)O)NC2=O)C(=O)N[C@@H](CO)C(=O)N1)C(C)C)C(=O)O [GeXXA-CTD] (H-TRLCSTMSCARADCTCVYHTWRGHGCSCVM-OH; disulfide 4-16, 9-26, 14-28)
pIC50 (rα9α10 nAChR): 6.70 | pIC50 (hα9α10 nAChR): 5.69 | pIC50 (hα9rα10 nAChR): 6.65 | pIC50 (hα9α10[L7H] nAChR): 6.74
